What follows are molecules tested against T1, human CPT1A (Homo sapiens, UniProt P50416) (assay: Human CPT1A LC/MS assay). Conditions: dose response assay, n=17.
T1 construct: made in house; host or cells: Saccharomyces cerevisiae (pESC-trp) or cultured mammalian cells (pCDNA3.1); mitochondrial extract
T1 sequence (P50416 1-773): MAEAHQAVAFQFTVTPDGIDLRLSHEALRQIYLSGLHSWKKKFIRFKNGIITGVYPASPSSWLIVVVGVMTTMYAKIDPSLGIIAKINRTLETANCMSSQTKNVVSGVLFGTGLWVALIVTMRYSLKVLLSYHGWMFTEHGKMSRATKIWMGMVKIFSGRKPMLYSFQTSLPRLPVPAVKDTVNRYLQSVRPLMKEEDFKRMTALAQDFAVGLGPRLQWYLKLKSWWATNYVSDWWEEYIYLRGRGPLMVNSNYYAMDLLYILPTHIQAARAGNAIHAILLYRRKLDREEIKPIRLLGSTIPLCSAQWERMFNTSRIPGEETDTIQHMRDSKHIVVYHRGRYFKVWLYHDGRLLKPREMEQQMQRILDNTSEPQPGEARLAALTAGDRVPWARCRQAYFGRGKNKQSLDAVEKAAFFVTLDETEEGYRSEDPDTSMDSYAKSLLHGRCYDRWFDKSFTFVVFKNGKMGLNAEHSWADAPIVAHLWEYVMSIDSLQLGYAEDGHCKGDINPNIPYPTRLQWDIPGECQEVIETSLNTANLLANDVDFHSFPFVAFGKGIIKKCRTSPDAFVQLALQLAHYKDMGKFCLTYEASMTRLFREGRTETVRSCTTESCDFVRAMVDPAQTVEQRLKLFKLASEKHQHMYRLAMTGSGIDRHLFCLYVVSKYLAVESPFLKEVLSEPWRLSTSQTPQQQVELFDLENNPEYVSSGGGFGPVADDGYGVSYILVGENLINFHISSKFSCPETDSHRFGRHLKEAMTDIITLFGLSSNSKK
Format: biochemical
How it was run: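 Mitochondrial extracts (1.6 μg protein) expressing human CPT1A, preincubated 10 min with compound in 20% DMSO, then reacted 10 min at room temperature with 20 μM palmitoyl-CoA, 50 μM L-carnitine (pH 7.5). Palmitoyl carnitine was quantified by LC/MS against a myristoyl carnitine standard; 16-point, 2-fold titrations gave dose response.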

Row | IC50 | Structure (SMILES)
1 | 7 ± 2.5 µM | C[N+](C)(C)C[C@H](N)CC(=O)[O-] [L-aminocarnitine, (R)-3-amino-4-(trimethylammonio)butanoate, reference compound]

Same assay, conditions: human CPT1A LC/MS assay, dose response format

Row | Structure (SMILES) | IC50
2 | C[N+](C)(C)C[C@@H](CC(=O)[O-])NC(=O)c1ccc(Br)o1 [Example S114, (R)-3-(5-bromofuran-2-carboxamido)-4-(trimethylammonio)butanoate] | 100 to 1000 µM
3 | C[N+](C)(C)C[C@@H](CC(=O)O)NC(=O)c1ccc(C#Cc2ccsc2)o1 [Example S116, (R)-3-carboxy-N,N,N-trimethyl-2-(5-(thiophen-3-ylethynyl)furan-2-carboxamido)propan-1-aminium 2,2,2-trifluoroacetate] | 10 to 100 µM
4 | COc1ncc(C#Cc2ccc(C(=O)N[C@H](CC(=O)O)C[N+](C)(C)C)o2)cn1 [Example S117] | 100 to 1000 µM
5 | CCCCCCc1ccc(C#Cc2ccc(C(=O)N[C@H](CC(=O)O)C[N+](C)(C)C)o2)s1 [Example S118, (R)-3-carboxy-2-(5-((5-hexylthiophen-2-yl)ethynyl)furan-2-carboxamido)-N,N,N-trimethylpropan-1-aminium 2,2,2-trifluoroacetate] | 1 to 10 µM
6 | CCCCCCc1ccc(CCc2ccc(C(=O)N[C@H](CC(=O)O)C[N+](C)(C)C)o2)s1 [Example S119, (R)-3-(5-(2-(5-hexylthiophen-2-yl)ethyl)furan-2-carboxamido)-4-(trimethylammonio)butanoate] | ≤ 1 µM
7 | CCCCCCC(=O)C(=O)N[C@H](CC(=O)O)C[N+](C)(C)C [Example S120, (R)-3-carboxy-N,N,N-trimethyl-2-(2-oxooctanamido)propan-1-aminium 2,2,2-trifluoroacetate] | 1 to 10 µM
8 | CCCCCc1ccc(CCC2CCC(C(=O)N[C@H](CC(=O)[O-])C[N+](C)(C)C)O2)cc1 (stereo partly drawn) [Example S121, (3R)-3-(5-(4-pentylphenethyl)tetrahydrofuran-2-carboxamido)-4-(trimethylammonio)butanoate] | 1 to 10 µM
9 | CCCCCc1ccc(CCc2ccc(C(=O)N[C@H](CC(=O)O)C[N+](C)(C)C)o2)cc1 [Example S123, (R)-3-carboxy-N,N,N-trimethyl-2-(5-(4-pentylphenethyl)furan-2-carboxamido)propan-1-aminium 2,2,2-trifluoroacetate] | ≤ 1 µM
10 | C[N+](C)(C)C[C@@H](CC(=O)O)NC(=O)c1ccc(CCc2ccsc2)o1 [Example S124, (R)-3-carboxy-N,N,N-trimethyl-2-(5-(2-(thiophen-3-yl)ethyl)furan-2-carboxamido)propan-1-aminium 2,2,2-trifluoroacetate] | ≤ 1 µM
11 | CCCCCCOc1cccc(CCc2ccc(C(=O)N[C@H](CC(=O)O)C[N+](C)(C)C)o2)c1 [Example S125, (R)-3-carboxy-2-(5-(3-(hexyloxy)phenethyl)furan-2-carboxamido)-N,N,N-trimethylpropan-1-aminium 2,2,2-trifluoroacetate] | ≤ 1 µM

Results, then the molecule that gave them:

Row | IC50 | Structure (SMILES)
12 | 1 to 10 µM | CCCCCCCC#Cc1ccc(NS(=O)(=O)N[C@H](CC(=O)[O-])C[N+](C)(C)C)cc1 [Example S104, (R)-3-(N-(4-(non-1-ynyl)phenyl)sulfamoylamino)-4-(trimethylammonio) butanoate]
13 | ≤ 1 µM | CCCCCCCCCc1ccc(NS(=O)(=O)N[C@H](CC(=O)[O-])C[N+](C)(C)C)cc1 [Example S105, (R)-3-(N-(4-nonylphenyl)sulfamoylamino)-4-(trimethylammonio)-butanoate]
14 | 1 to 10 µM | CCCCCCC#Cc1ccc(NS(=O)(=O)N[C@H](CC(=O)[O-])C[N+](C)(C)C)cc1 [Example S106, (R)-3-(N-(4-(oct-1-ynyl)phenyl)sulfamoylamino)-4-(trimethylammonio) butanoate]
15 | 1 to 10 µM | CCCCCc1ccc(C#Cc2ccc(NS(=O)(=O)N[C@H](CC(=O)[O-])C[N+](C)(C)C)cc2)cc1 [Example S107, (R)-3-(N-(4-((4-pentylphenyl)ethynyl)phenyl)sulfamoylamino)-4-(trimethylammonio)butanoate]
16 | ≤ 1 µM | CCCCCc1ccc(CCc2ccc(NS(=O)(=O)N[C@H](CC(=O)[O-])C[N+](C)(C)C)cc2)cc1 [Example S108, (R)-3-(N-(4-(4-pentylphenethyl)phenyl)sulfamoylamino)-4-(trimethyl-ammonio)butanoate]
17 | ≤ 1 µM | CCCCCCOc1cccc(OCCCCCN(C)S(=O)(=O)N[C@H](CC(=O)[O-])C[N+](C)(C)C)c1 [Example S109, (R)-3-(N-(5-(3-(hexyloxy)phenoxy)pentyl)-N-methylsulfamoylamino)-4-(trimethylammonio)butanoate]
18 | 10 to 100 µM | CCCCCCC#Cc1cccc(NS(=O)(=O)N[C@H](CC(=O)[O-])C[N+](C)(C)C)c1 [Example S110, (R)-3-(N-(3-(oct-1-ynyl)phenyl)sulfamoylamino)-4-(trimethylammonio) butanoate]
19 | ≤ 1 µM | CCCCCCCCc1cccc(NS(=O)(=O)N[C@H](CC(=O)[O-])C[N+](C)(C)C)c1 [Example S111, (R)-3-(N-(3-octylphenyl)sulfamoylamino)-4-(trimethylammonio)-butanoate]
20 | 10 to 100 µM | CCCCCCC#Cc1cccc(N(C)S(=O)(=O)N[C@H](CC(=O)[O-])C[N+](C)(C)C)c1 [Example S112, (R)-3-(N—(N-methyl-N-(3-(oct-1-ynyl)phenyl)sulfamoyl)amino)-4-(trimethyl-ammonio)butanoate]
21 | 1 to 10 µM | CCCCCCCCc1cccc(N(C)S(=O)(=O)N[C@H](CC(=O)O)C[N+](C)(C)C)c1 [Example S113, (R)-3-carboxy-N,N,N-trimethyl-2-(N-methyl-N-(3-octylphenyl)sulfamoylamino)propan-1-aminium 2,2,2-trifluoroacetate]
22 | ≤ 1 µM | CCCCCc1ccc(C#Cc2ccc(C(=O)N[C@H](CC(=O)[O-])C[N+](C)(C)C)o2)cc1 [Example S115, (R)-3-carboxy-N,N,N-trimethyl-2-(5-((4-pentylphenyl)ethynyl)furan-2-carboxamido)propan-1-aminium 2,2,2-trifluoroacetate]
23 | 1 to 10 µM | CCCCCCOc1cccc(C#Cc2ccc(C(=O)N[C@H](CC(=O)[O-])C[N+](C)(C)C)o2)c1 [Example S122, (R)-3-(5-((3-(hexyloxy)phenyl)ethynyl)furan-2-carboxamido)-4-(trimethylammonio)butanoate]
